Test [1] deals with T1, CAMKK2-KD (kinase domain of CAMKK2) (Homo sapiens, UniProt Q96RR4).
T1 construct: the protein kinase domain (amino acids 161–449); hexahistidine (6xHis), TEV-cleavable; made in house
The test can be described thus: DSF thermal-shift screen, 384-well format. The following applies: 10 µM compound, 1 µM kinase, 0.1% DMSO, single measurement. It is filed as binding. The method, then: (§1) We employed a thermal-shift assay (Differential Scanning Fluorimetry, DSF)[19] to identify compounds that can bind to the kinase domain of CAMKK2 (CAMKK2-KD). Protein thermal denaturation curves (Fig. 1A,B) were used to calculate the denaturation midpoint temperature (Tm) for the kinase domain of CAMKK2 in the presence of ligands or vehicle only (DMSO). […] DSF screens were performed on purified CAMKK2-KD using a library of commercially available, chemically diverse, ATP-competitive, kinase inhibitors.
DSF experiments in 384-well format followed a protocol previously established at the SGC-UNICAMP and described elsewhere.
The compounds, previously solubilized in DMSO, were used at 10 µM final concentration and 0.1% DMSO. Plates were sealed using optically clear films and transferred to a QuantStudio 6 qPCR instrument (Applied Biosystems). […] Protein in 0.1% DMSO was used as a reference.
(§2) For both formats, experiments were performed in singlets.

For test [2], the target named is T1, CAMKK2-KD (kinase domain of CAMKK2). The test can be described thus: DSF thermal-shift screen, 96-well format. The following applies: for ΔTm at 12 µM: read-out: ΔTm. The format is binding. The protocol:
as §1
SYPRO Orange dye (Invitrogen) was used in 5X as final concentration.
Plates were sealed using optically clear films and transferred to an Mx3005p RT-PCR machine (Agilent).
as §2

A further test has as its target T2, CAMKK2-FL (Homo sapiens, UniProt Q96RR4).
T2 construct: an enzymatic assay using the full-length protein (CAMKK2-FL); purchased Eurofins Discovery (MO, USA), assay service
The test can be described thus: Radiometric enzymatic assay (Eurofins Discovery), Ca2+/Calmodulin present. The following applies: 90 µM ATP; single measurement. It is filed as biochemical.

A further test addresses CAMKK2-KD (Homo sapiens, UniProt Q96RR4). The test can be described thus: Isothermal titration calorimetry (reverse titration). The following applies: individual ITC experiment, 20 °C.
Where [3] appears, read: 96-well format, 12 µM compound, 2 µM kinase, 2.5% DMSO, single measurement.

Like-named read-outs stand apart in the source and are kept apart here.

T1 sequence (Q96RR4 161-449): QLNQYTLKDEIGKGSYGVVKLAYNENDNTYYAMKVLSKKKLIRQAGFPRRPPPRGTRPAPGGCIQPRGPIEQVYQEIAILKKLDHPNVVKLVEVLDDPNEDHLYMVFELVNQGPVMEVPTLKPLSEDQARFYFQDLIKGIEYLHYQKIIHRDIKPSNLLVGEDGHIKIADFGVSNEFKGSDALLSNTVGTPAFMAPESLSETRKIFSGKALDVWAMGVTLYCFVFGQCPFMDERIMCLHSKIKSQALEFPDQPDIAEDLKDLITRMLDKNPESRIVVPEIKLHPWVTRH
Chain of CAMKK2-KD (Q96RR4 161-449): as above

For the molecule `Cc1[nH]nc2ccc(-c3cncc(OC[C@@H](N)Cc4ccccc4)c3)cc12` [A-674563], the ΔTm in test [1] is 4.7 °C.

In the case of `Cc1cc(Nc2nc(N[C@@H](C)c3ccc(F)cc3)c(C#N)cc2F)[nH]n1` [AZ 960], in test [1], the thermal shift (ΔTm) at 10 µM came out at 4.3 °C.

As to `COc1cc(N2CCC(N)CC2)ccc1Nc1ncc(Cl)c(-c2c[nH]c3ccccc23)n1` [AZD3463], the thermal shift (ΔTm) in test [1] came to 9.3 °C.

Take `C=CC(=O)Nc1cc(Nc2nccc(-c3cn(C)c4ccccc34)n2)c(OC)cc1N(C)CCN(C)C` [AZD9291]: the shift in melting temperature (ΔTm) at 10 µM in test [1] stood at 4.1 °C.

For the molecule `Nc1nc(Nc2ccc(S(N)(=O)=O)cc2)nn1C(=O)c1c(F)cccc1F` [Aurora/Cdk Inhibitor], the shift in melting temperature (ΔTm) in test [2] (setting [3]) turned out to be 4.3 °C.

With `Cn1cc(C2=C(c3cn(CCCSC(=N)N)c4ccccc34)C(=O)NC2=O)c2ccccc21` [BIM IX], in test [2] (setting [3]), the ΔTm is 8.1 °C.

`CCOc1ccn(-c2ccc(F)cc2)c(=O)c1C(=O)Nc1ccc(Oc2ccnc(N)c2Cl)c(F)c1` [BMS-777607]: the ΔTm at 10 µM in test [1] amounted to 4.7 °C.

For the molecule `O=C(NCCCNc1nc(Nc2cccc(NC(=O)N3CCCC3)c2)ncc1I)c1cccs1` [BX-795], the thermal shift (ΔTm) at 10 µM in test [1] was found to be 5.1 °C.

Turning to `COc1cc2c(Nc3cc(Cl)c(OC)c(Cl)c3)c(C#N)cnc2cc1OCCCN1CCN(C)CC1` [Bosutinib isomer], in test [2] (setting [3]), the shift in melting temperature (ΔTm) turned out to be 4.1 °C.

Turning to `Cc1cc(CN2CCN(c3c(Br)cnc4nc(-c5ccc(N6CCN(C)CC6)cc5)[nH]c34)CC2)no1` [CCT137690], the ΔTm in test [1] came to 4.7 °C.

Turning to `O=C1NCCCc2c1oc1ccc(O)cc21` [CID 755673], the shift in melting temperature (ΔTm) in test [2] (setting [3]) is 4.4 °C.

As for `C=CC(=O)Nc1cccc(Nc2nc(Nc3ccc(N4CCN(C(C)=O)CC4)cc3OC)ncc2C(F)(F)F)c1` [CO-1686], the ΔTm at 10 µM in test [1] is 4.4 °C.

On to `Cc1nc(N)sc1-c1ccnc(Nc2ccc(N3CCOCC3)cc2)n1` [CYC116], for which, in test [1], the ΔTm at 10 µM turned out to be 4.4 °C.

For `N#CCNC(=O)c1ccc(-c2ccnc(Nc3ccc(N4CCOCC4)cc3)n2)cc1` [CYT387], the shift in melting temperature (ΔTm) at 10 µM in test [1] stood at 4.3 °C.

For the molecule `CO[C@@H](C(=O)N1Cc2n[nH]c(NC(=O)c3ccc(N4CCN(C)CC4)cc3)c2C1)c1ccccc1` [Danusertib], the ΔTm at 10 µM in test [1] was 5.1 °C.

Take `CN1CCN(c2ccc3nc(-c4c(N)c5c(F)cccc5[nH]c4=O)[nH]c3c2)CC1` [Dovitinib]: in test [2] (setting [3]), the ΔTm at 12 µM was 6.9 °C.

Turning to `c1ccc(-c2cnc(Nc3ccc(OCCN4CCCC4)cc3)s2)cc1` [Flt3 Inhibitor III], in test [2] (setting [3]), the ΔTm was 7.5 °C.

With `COc1cc2c(Oc3ccc(NC(=O)C4(C(=O)Nc5ccc(F)cc5)CC4)cc3F)ccnc2cc1OCCCN1CCOCC1` [Foretinib], the ΔTm at 10 µM in test [1] was determined as 6.3 °C. On CAMKK2-FL, this molecule returned a half-maximal inhibitory concentration (IC50) of 1.3 µM.

Consider `CNc1nc(Nc2cnn([C@H]3CCN(C4COC4)C[C@@H]3F)c2Cl)ncc1C(F)(F)F` [GNE-9605], for which the shift in melting temperature (ΔTm) in test [1] was determined as 6.4 °C.

On to `O=C(O)c1ccc(-c2c[nH]c3ncc(-c4ccccc4)cc23)cc1C1CCCC1` [GSK650394], for which the ΔTm at 10 µM in test [1] was 16.2 °C. At CAMKK2-KD (run 1), the “ΔG Run 1” value was -11 kcal/mol and the “ΔH Run 1” value was -20.9 kcal/mol. Further, at CAMKK2-KD (run 2), the “ΔG Run 2” value is -10.9 kcal/mol and the “ΔH Run 2” value was -18.9 kcal/mol.

Turning to `C[C@@H](Oc1cc(-n2cnc3ccc(OC[C@@H](O)CO)cc32)sc1C(N)=O)c1ccccc1Cl` [GSK978744A], in test [2] (setting [3]), the thermal shift (ΔTm) at 12 µM stood at 4.9 °C.

In the case of `O=C1NC(=O)/C(=C/c2ccc3nccc(-c4ccncc4)c3c2)S1` [GSK1059615], the ΔTm at 10 µM in test [1] was found to be 4.4 °C.

`CN(c1ccc(NC(=O)Nc2ccc(OC(F)(F)F)cc2)cc1)c1ccnc(Nc2cccc(S(N)(=O)=O)c2)n1` [GW806742X]: in test [2], the thermal shift (ΔTm) at 12 µM turned out to be 5.8 °C.

Take `CCOC(=O)c1cnc2ccc(-c3cncc(NS(=O)(=O)c4ccccc4)c3)cn12` [HS-173]: the ΔTm in test [1] is 4.2 °C.

For the molecule `CCS(=O)(=O)Nc1ccc2c(c1)/C(=C(/Nc1ccc(CN3CCCCC3)cc1)c1ccccc1)C(=O)N2` [Hesperadin], the thermal shift (ΔTm) at 10 µM in test [1] turned out to be 7.3 °C.

Regarding `O=C(c1ccc(Nc2nccc(-c3cc4ccccc4s3)n2)cc1)N1CCC(N2CCCC2)CC1` [IKK 16], in test [2] (setting [3]), the thermal shift (ΔTm) is 6.8 °C.

`O=C1Nc2ccccc2/C1=C1/Nc2ccccc2/C1=N\O` [Indirubin-3monoxime]: the shift in melting temperature (ΔTm) in test [2] (setting [3]) is 5.4 °C.

Regarding `O=C1c2ccccc2-c2n[nH]c3cccc1c23` [JNK Inhibitor II], the thermal shift (ΔTm) in test [2] (setting [3]) is 6.8 °C.

As to `Cc1cc(Nc2ncc(Cl)c(Nc3ccccc3S(=O)(=O)C(C)C)n2)c(OC(C)C)cc1C1CCNCC1` [LDK378], the ΔTm at 10 µM in test [1] was found to be 8 °C.

As to `Cc1cc(Nc2cc(CN3CCOCC3)c3nc(C)c(Cc4ccc(Cl)cc4F)n3n2)n[nH]1` [LY2784544], in test [1], the ΔTm at 10 µM was 4.3 °C.

For `CCN1CCN(Cc2ccc(Nc3ncc(F)c(-c4cc(F)c5nc(C)n(C(C)C)c5c4)n3)nc2)CC1` [LY2835219], the ΔTm at 10 µM in test [1] was 6.2 °C.

For the molecule `CNC(=O)c1nn(C)c2c1C(C)(C)Cc1cnc(Nc3ccc(N4CCN(C)CC4)cc3)nc1-2` [Milciclib (PHA-848125), Milciclib], in test [1], the shift in melting temperature (ΔTm) at 10 µM stood at 7 °C.

Turning to `CC(C)n1cnc2c(Nc3cccc(Cl)c3)nc(NCCO)nc21` [NG 52 (Compound 52)], in test [2] (setting [3]), the shift in melting temperature (ΔTm) worked out at 6.8 °C.

`CN(c1ncccc1CNc1nc(Nc2ccc3c(c2)CC(=O)N3)ncc1C(F)(F)F)S(C)(=O)=O` [PF-562271]: the thermal shift (ΔTm) in test [1] is 4.2 °C.

`CS(=O)(=O)c1cccc(CNc2nc(Nc3ccc4c(c3)CCC(=O)N4)ncc2C(F)(F)F)c1` [PF-573228]: the ΔTm in test [1] was found to be 4.5 °C.

Turning to `Cc1nc(Nc2[nH]nc3c2CN(C(=O)N[C@H](CN(C)C)c2ccccc2)C3(C)C)c2sccc2n1` [PF-3758309], the thermal shift (ΔTm) at 10 µM in test [1] was 4.4 °C.

Regarding `Cc1[nH]c(/C=C2\C(=O)Nc3ccc(S(=O)(=O)Cc4c(Cl)cccc4Cl)cc32)c(C)c1C(=O)N1CCC[C@@H]1CN1CCCC1` [PHA-665752], in test [1], the ΔTm at 10 µM stood at 4.9 °C.

For `Cc1ccc([N+](=O)[O-])cc1S(=O)(=O)N(C)/N=C/c1cnc2ccc(Br)cn12` [PIK-75], the shift in melting temperature (ΔTm) in test [1] came to 7.2 °C.

For the molecule `C1=C/COCc2cc(ccc2OCCN2CCCC2)Nc2nccc(n2)-c2cccc(c2)COC/1` [Pacritinib (SB1518), Pacritinib], the ΔTm at 10 µM in test [1] came to 7.8 °C.

Take `CCOc1cc2ncc(C#N)c(Nc3ccc(F)c(Cl)c3)c2cc1NC(=O)/C=C/CN(C)C` [Pelitinib]: the shift in melting temperature (ΔTm) at 10 µM in test [1] amounted to 4.8 °C.

For `c1nc2nc(Nc3ccc(N4CCOCC4)cc3)nc(NC3CCCCC3)c2[nH]1` [Reversine], the shift in melting temperature (ΔTm) at 12 µM in test [2] (setting [3]) was 4.6 °C.

Regarding `COc1cc(C(=O)NC2CCN(C)CC2)ccc1Nc1ncc2c(n1)N(C1CCCC1)CC(F)(F)C(=O)N2C` [Ro3280], in test [1], the shift in melting temperature (ΔTm) came out at 4.5 °C.

Take `COc1ccc2c(c1)/C(=C/c1cnc[nH]1)C(=O)N2` [SU9516]: the shift in melting temperature (ΔTm) at 12 µM in test [2] (setting [3]) is 5 °C.

`Cn1cc(/C=C2\C(=O)Nc3ccc(S(N)(=O)=O)cc32)c2ccccc21` [Syk Inhibitor]: the ΔTm in test [2] (setting [3]) was determined as 9.4 °C.

With `COc1cc(N2CCC(N3CCN(C)CC3)CC2)ccc1Nc1ncc(Cl)c(Nc2ccccc2S(=O)(=O)C(C)C)n1` [TAE684], in test [2] (setting [3]), the ΔTm at 12 µM was determined as 16.3 °C.

For the molecule `CCS(=O)(=O)c1cccc(-c2cc(C(=O)NC3CCN(C)CC3)c(C)c3[nH]c4ncc(C)cc4c23)c1` [TAK-901], in test [1], the thermal shift (ΔTm) at 10 µM was 4.7 °C.

Regarding `C=CC(=O)Nc1cccc(Sc2nc(Nc3ccc(N4CCN(C)CC4)cc3)ncc2Cl)c1` [WZ8040], the shift in melting temperature (ΔTm) in test [1] stood at 4.8 °C.

Take JAK Inhibitor I: the ΔTm in test [2] (setting [3]) amounted to 4.7 °C.

As a reminder, the ΔTm is the shift of the melting midpoint relative to a reference. Usually IC50 stands for the point on the concentration scale where inhibition reaches its midpoint. Lower therefore signals higher potency.
